For one test, the target named is PfGrp94 (Plasmodium falciparum, UniProt Q8I0V4). Conditions: basal ATPase; used as control protein.
The target of test [1] is T1, PfGrp170 (Plasmodium falciparum, UniProt C0H5H0).
T1 sequence (C0H5H0 20-932): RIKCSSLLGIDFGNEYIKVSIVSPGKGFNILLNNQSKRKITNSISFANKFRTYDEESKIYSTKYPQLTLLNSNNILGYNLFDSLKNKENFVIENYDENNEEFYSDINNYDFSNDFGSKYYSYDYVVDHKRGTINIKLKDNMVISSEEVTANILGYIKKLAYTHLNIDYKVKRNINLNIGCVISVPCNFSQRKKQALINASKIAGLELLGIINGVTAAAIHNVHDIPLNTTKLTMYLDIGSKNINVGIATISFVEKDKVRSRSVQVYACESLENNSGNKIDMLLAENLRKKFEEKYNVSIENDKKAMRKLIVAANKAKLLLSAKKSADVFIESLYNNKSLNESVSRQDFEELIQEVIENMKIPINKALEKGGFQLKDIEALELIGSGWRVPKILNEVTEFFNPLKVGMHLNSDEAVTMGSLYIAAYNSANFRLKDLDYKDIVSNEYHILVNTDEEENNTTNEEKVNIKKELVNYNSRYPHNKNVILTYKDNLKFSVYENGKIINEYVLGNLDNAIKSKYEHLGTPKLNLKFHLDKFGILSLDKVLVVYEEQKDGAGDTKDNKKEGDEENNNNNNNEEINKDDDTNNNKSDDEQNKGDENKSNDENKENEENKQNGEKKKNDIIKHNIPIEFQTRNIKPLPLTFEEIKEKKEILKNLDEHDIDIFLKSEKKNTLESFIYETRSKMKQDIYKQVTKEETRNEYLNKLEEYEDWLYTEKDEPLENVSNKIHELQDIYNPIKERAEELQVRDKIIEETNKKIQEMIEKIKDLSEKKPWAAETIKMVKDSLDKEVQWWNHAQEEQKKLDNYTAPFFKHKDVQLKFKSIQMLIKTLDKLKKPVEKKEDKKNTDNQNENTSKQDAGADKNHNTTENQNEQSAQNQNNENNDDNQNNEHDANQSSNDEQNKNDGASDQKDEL
Briefly: biochemical.

Test [2] has as its target T1, PfGrp170. Nature of the test: suppression of heat-induced MDH aggregation, light scattering […] nm. In kind it is biochemical. Particulars: 100 µM NECA, 1 µM PfGrp170, MDH (pig heart), 20 mM Tris-HCl pH 7.5, 200 mM NaCl, 5 mM MgCl2, 48 °C; inhibitor of chaperone function.

Chain of PfGrp94 (Q8I0V4 29-821): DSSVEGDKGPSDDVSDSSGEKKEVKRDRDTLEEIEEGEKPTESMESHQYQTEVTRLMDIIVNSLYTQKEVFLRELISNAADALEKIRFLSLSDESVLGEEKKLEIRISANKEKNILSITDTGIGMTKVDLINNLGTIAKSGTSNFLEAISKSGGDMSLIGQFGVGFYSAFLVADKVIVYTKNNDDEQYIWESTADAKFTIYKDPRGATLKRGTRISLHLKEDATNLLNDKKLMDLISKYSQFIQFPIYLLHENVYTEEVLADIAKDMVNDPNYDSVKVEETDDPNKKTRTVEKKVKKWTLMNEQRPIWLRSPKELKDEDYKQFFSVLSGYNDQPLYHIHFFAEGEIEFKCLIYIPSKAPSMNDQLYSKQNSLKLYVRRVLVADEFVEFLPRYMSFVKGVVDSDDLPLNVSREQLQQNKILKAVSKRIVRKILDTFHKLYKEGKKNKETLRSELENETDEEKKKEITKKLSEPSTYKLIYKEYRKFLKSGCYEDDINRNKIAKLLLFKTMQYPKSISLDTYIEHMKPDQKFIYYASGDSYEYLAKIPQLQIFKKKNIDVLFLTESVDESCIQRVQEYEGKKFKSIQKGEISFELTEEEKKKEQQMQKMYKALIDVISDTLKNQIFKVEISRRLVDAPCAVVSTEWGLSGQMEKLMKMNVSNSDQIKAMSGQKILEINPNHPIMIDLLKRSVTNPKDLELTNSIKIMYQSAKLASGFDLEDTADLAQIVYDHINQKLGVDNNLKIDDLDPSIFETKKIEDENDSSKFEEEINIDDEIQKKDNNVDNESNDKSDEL

In general, Kd refers to a measure of binding affinity in units of concentration. In the case of `Nc1ncnc2c1ncn2[C@@H]1O[C@H](COP(=O)(O)OP(=O)(O)OP(=O)(O)O)[C@@H](O)[C@H]1O` [ATP], on PfGrp94, the ATPase activity entry was “The basal ATPase activity of PfGrp170 and PfGrp94 as control”. Also, at PfGrp170 [1], the affinity, expressed as Kd, was 143 ± 15.6 nM.
As for `CCNC(=O)[C@H]1O[C@@H](n2cnc3c(N)ncnc32)[C@H](O)[C@@H]1O` [NECA], at PfGrp170 [2], the relative aggregation entry is given as “higher concentrations of NECA abrogated the chaperone function of PfGrp170”.

For the origin of these results see paper PMC12307583 (Scientific Reports, 2025).
